The target in test [1] is hJAK2 (Homo sapiens (Human), UniProt O60674). Put plainly: hJAK2 LANCE TR-FRET enzymatic assay. The format is biochemical. Conditions: read-out: JAK2 IC50.
Test [2] deals with TBK1 (Homo sapiens (Human), UniProt Q9UHD2). Put plainly: TBK1 TR-FRET enzymatic assay.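 Further: phosphorylation of a biotinylated Ser/Thr peptide by purified full-length recombinant TBK1, read by TR-FRET after 240 min at 25 °C, IC50 is the geometric mean of at least four runs.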
In test [3] the target is IKKε (Homo sapiens (Human), UniProt Q14164). Nature of the test: IKKε TR-FRET enzymatic assay. The format is biochemical. Conditions: read-out: IKKe IC50.
IKKε, sequence (Q14164 whole entry): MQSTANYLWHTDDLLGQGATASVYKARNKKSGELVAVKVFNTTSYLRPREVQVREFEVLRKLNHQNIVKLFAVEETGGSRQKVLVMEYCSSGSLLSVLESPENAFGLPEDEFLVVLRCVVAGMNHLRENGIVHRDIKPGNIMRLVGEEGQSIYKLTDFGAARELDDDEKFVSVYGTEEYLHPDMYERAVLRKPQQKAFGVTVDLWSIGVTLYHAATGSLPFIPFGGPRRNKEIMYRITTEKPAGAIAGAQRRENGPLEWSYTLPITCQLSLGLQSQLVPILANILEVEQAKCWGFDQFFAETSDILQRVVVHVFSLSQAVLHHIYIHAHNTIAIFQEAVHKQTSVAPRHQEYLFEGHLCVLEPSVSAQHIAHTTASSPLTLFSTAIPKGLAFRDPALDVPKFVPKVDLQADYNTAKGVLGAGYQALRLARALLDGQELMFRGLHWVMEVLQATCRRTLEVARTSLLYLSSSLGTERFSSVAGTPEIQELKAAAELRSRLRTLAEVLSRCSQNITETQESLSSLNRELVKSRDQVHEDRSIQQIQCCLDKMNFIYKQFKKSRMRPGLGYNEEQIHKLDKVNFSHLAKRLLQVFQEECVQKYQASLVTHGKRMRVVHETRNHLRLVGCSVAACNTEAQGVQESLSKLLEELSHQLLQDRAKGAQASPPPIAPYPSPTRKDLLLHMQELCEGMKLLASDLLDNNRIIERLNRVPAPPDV

TBK1, sequence (Q9UHD2 whole entry): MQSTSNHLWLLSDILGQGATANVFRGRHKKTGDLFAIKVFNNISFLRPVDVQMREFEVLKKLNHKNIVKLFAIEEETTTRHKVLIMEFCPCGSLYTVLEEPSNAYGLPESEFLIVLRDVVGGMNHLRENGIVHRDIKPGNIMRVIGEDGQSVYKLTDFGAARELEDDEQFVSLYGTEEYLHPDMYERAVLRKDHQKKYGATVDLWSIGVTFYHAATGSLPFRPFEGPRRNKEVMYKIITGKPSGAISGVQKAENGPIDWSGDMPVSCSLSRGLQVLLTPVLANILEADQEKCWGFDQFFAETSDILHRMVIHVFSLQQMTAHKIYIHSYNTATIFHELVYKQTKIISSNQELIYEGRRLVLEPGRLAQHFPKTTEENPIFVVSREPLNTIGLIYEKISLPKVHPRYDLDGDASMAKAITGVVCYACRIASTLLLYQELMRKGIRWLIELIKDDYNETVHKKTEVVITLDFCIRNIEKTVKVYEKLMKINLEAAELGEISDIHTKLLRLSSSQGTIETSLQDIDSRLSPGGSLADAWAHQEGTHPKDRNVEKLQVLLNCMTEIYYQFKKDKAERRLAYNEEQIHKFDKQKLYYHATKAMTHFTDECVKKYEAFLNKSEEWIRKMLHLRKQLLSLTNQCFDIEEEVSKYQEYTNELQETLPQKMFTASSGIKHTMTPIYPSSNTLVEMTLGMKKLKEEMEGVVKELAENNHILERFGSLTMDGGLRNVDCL
hJAK2, sequence (O60674 whole entry): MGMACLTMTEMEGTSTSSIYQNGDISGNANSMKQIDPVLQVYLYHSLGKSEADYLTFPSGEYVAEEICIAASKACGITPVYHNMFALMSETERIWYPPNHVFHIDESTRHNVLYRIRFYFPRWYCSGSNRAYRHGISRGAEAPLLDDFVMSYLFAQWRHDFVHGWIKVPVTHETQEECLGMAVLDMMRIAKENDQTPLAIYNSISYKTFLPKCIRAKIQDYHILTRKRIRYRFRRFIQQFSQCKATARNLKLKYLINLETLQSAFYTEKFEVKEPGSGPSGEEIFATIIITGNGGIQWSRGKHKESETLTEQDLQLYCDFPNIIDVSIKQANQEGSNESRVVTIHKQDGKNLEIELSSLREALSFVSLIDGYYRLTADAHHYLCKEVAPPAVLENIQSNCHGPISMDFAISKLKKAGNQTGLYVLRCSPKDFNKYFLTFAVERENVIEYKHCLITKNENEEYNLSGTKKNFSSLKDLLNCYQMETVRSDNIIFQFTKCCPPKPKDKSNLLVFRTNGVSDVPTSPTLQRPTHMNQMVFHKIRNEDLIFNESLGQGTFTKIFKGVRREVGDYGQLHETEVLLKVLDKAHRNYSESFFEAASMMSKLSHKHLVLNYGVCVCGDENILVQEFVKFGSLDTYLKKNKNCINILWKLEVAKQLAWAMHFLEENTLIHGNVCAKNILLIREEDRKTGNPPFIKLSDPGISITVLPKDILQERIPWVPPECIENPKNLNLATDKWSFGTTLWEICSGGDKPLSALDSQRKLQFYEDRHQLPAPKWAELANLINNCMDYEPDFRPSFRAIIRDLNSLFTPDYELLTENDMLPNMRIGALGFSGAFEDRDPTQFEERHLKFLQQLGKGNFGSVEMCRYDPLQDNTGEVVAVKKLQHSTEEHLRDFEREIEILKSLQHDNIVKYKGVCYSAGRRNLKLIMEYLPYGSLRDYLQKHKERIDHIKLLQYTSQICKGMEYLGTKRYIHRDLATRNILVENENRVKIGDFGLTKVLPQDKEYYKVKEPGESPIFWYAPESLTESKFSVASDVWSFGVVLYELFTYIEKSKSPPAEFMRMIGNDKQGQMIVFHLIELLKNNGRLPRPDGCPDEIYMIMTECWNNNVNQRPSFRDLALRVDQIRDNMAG

With `C[C@H](O)C(=O)N1CC[C@H](Oc2ccc(-c3ncnc(Nc4ccc([C@H]5CCCN5C5COC5)cc4)n3)cc2C#N)[C@H](F)C1` [Example 616, 2-(((3R,4S)-3-fluoro-1-((S)-2-hydroxypropanoyl)piperidin-4-yl)oxy)-5-(4-((4-((R)-1-(oxetan-3-yl)pyrrolidin-2-yl)phenyl)amino)-1,3,5-triazin-2-yl)benzonitrile], the results for the IC50 in test [1], in test [2] and in test [3] were at least 1000 nM, 5 nM and 4 nM, respectively.

Take `COC[C@@H](O)C(=O)N1CC[C@H](Oc2ccc(-c3ncnc(Nc4ccc(N5CCN(C6COC6)CC5)cc4)n3)cc2C#N)[C@H](F)C1` [Example 617, 2-(((3R,4S)-3-fluoro-1-((R)-2-hydroxy-3-methoxypropanoyl)piperidin-4-yl)oxy)-5-(4-((4-(4-(oxetan-3-yl)piperazin-1-yl)phenyl)amino)-1,3,5-triazin-2-yl)benzonitrile]: the results for the IC50 in test [1], in test [2] and in test [3] were 226 nM, 29 nM and 75 nM, respectively.

On to `COC[C@H](O)C(=O)N1CC[C@H](Oc2ccc(-c3ncnc(Nc4ccc(N5CCN(C6COC6)CC5)cc4)n3)cc2C#N)[C@H](F)C1` [Example 618, 2-(((3R,4S)-3-fluoro-1-((S)-2-hydroxy-3-methoxypropanoyl)piperidin-4-yl)oxy)-5-(4-((4-(4-(oxetan-3-yl)piperazin-1-yl)phenyl)amino)-1,3,5-triazin-2-yl)benzonitrile], for which the values for the IC50 in test [1], in test [2] and in test [3] were 162 nM, 2 nM and 1 nM, respectively.
